Where only a bound is given, the exact number is not on record here.

The target in one test is T1, cloned human CCR8 receptor stably expressed in L1.2 cells (Homo sapiens, UniProt P51685).
T1 construct: expressed in transfected cells
T1 sequence (P51685 whole entry): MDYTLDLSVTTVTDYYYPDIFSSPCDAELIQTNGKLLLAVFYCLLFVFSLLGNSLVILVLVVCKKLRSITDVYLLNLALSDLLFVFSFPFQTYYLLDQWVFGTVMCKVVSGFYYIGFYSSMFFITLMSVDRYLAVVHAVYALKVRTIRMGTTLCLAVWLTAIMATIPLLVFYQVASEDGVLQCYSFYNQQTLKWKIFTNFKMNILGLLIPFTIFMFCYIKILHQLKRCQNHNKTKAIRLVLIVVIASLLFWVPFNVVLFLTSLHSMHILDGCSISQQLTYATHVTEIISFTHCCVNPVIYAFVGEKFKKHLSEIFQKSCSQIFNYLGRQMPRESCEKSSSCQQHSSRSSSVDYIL
Briefly: whole cell binding screen: inhibition of biotinylated human I309 binding to CCR8 (FMAT 8100 HTS). To be noted: Ki of compounds to inhibit I-309 binding to CCR8, L1.2/hCCR8 cells, biotinylated human I-309, 10 point concentration response starting at 10 μM. In a few lines: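 L1.2 murine pre-B cells stably expressing human CCR8 (4.0×10^5 cells/mL) in HBSS/HEPES/fatty-acid-free BSA/azide buffer were mixed with biotinylated human I309 and compounds for 0.5 h, read by FMAT fluorescence. 10-point curves from 10 μM final; percent inhibition normalized to no-inhibitor and 100 nM unlabeled I309 controls.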
For `COc1ccc(NS(=O)(=O)c2ccc(N3C(=O)c4ccccc4C3=O)c3ccccc23)cc1` [Compound A-2, 4-(1,3-Dioxo-1,3-dihydro-isoindol-2-yl)-naphthalene-1-sulfonic acid (4-methoxyphenyl)-amide], the Ki – broadly, a measure of affinity in units of concentration, obtained from inhibition or displacement – was less than 30000 nM.

`O=C(Nc1ccc(S(=O)(=O)NC2CCNCC2)c2ccccc12)c1ccccc1` [Compound C-1, N-[4-(Piperidin-4-ylsulfamoyl)-naphthalen-1-yl]-benzamide] displayed an inhibitory constant (Ki) of less than 1000 nM.

Staying with this test, now noted: L1.2/hCCR8 cells, biotinylated human I-309, 10 point concentration response starting at 10 μM; read-out: Ki of compounds to inhibit I-309 binding to CCR8.
As to `CCN1CCC(NS(=O)(=O)c2cccc3c(NC(=O)c4ccccc4C)cccc23)CC1` [Compound H-14, N-[5-(1-Ethyl-piperidin-4-ylsulfamoyl)-naphthalen-1-yl]-2-methyl-benzamide], the inhibition constant Ki is less than 500 nM. On to `Cc1ccccc1C(=O)Nc1ccc(S(=O)(=O)N[C@H]2CCN(C(=O)[C@H](C)N)C[C@H]2C)c2ccccc12` [Compound J-5, (3R, 4S)-N-{4-[1-(2-(S)-Amino-propionyl)-3-methyl-piperidin-4-ylsulfamoyl]-naphthalen-1-yl}-2-methyl-benzamide], for which the Ki was less than 500 nM.

`CC(C)(C)OC(=O)N1CCC(NS(=O)(=O)c2ccc(C(=O)NC3CCCCC3)c3ccccc23)CC1` [Compound F-1, 4-(4-Cyclohexylcarbamoyl-naphthalene-1-sulfonylamino)-piperidine-1-carboxylic acid tert-butyl ester]: the inhibition constant (Ki) was less than 1000 nM.

In the case of `O=C(Nc1ccc(S(=O)(=O)NC2CCNCC2)c2ccccc12)C1CCC1` [Compound D-13, Cyclobutanecarboxylic acid [4-(piperidin-4-ylsulfamoyl)-naphthalen-1-yl]-amide], the Ki is less than 30000 nM.

`CCOC(=O)N1CCC(NS(=O)(=O)c2cccc3c(NC(=O)c4ccco4)cccc23)CC1` [Compound H-8, 4-{5-[(Furan-2-carbonyl)-amino]-naphthalene-1-sulfonylamino}-piperidine-1-carboxylic acid ethyl ester]: the Ki is less than 500 nM. Same read-out and setting: with `CCCC(=O)N1CCC(NS(=O)(=O)c2ccc(NC(=O)c3c(F)cccc3C(F)(F)F)c3ccccc23)CC1` [Compound C-110, N-[4-(1-Butyryl-piperidin-4-ylsulfamoyl)-naphthalen-1-yl]-2-fluoro-6-trifluoromethyl-benzamide] the figure was less than 500 nM; with `CCOC(=O)N1CCC(NS(=O)(=O)c2ccc(NC(=O)c3ccccc3C)c3c2CCC3)C1` (racemic) [Compound H-72, (±)-3-[7-(2-Methyl-benzoylamino)-indane-4-sulfonylamino]-pyrrolidine-1-carboxylic acid ethyl eter], less than 500 nM.

For the compound `CCCC(=O)N1CCC(NS(=O)(=O)c2ccc(C(=O)Nc3ccccc3)c3ccccc23)CC1` [Compound F-25, 4-(1-Butyryl-piperidin-4-ylsulfamoyl)-naphthalene-1-carboxylic acid phenylamide], the Ki is less than 500 nM. The same measure, in the same setting: with `Cc1ccccc1C(=O)Nc1ccc(S(=O)(=O)N[C@H]2CCN(Cc3ccccc3)C[C@H]2C)c2ccccc12` (racemic) [Compound A-21, (±)-cis-N-[4-(1-Benzyl-3-methyl-piperidin-4-ylsulfamoyl)-naphthalen-1-yl]-2-methyl-benzamide] the figure was less than 1000 nM; with `CC(=O)N1CC[C@H](NS(=O)(=O)c2ccc(NC(=O)c3ccccc3C)c3ccccc23)[C@@H](C)C1` (racemic) [Compound C-31, (±)-(trans)-N-[4-(1-Acetyl-3-methyl-piperidin-4-ylsulfamoyl)-naphthalen-1-yl]-2-methyl-benzamide], less than 500 nM; with `Cc1ccccc1C(=O)Nc1ccc(S(=O)(=O)N[C@@H]2CCN(C(=O)[C@@H]3CCCN3)C[C@H]2C)c2ccccc12` [Compound J-1, (3R,4R)-2-(S)-Methyl-N-{4-[3-methyl-1-(pyrrolidine-2-carbonyl)-piperidin-4-ylsulfamoyl]-naphthalen-1-yl}-benzamide], less than 500 nM. Same read-out and setting: with `CCOC(=O)N1CC[C@H](NS(=O)(=O)c2ccc(NC(=O)c3ccccc3C)c3ccccc23)[C@H](C)C1` (racemic) [Compound C-136, (±)-cis-3-Methyl-4-[4-(2-methyl-benzoylamino)-naphthalene-1-sulfonylamino]-piperidine-1-carboxylic acid ethyl ester] the figure was less than 500 nM; with `Cc1ccccc1C(=O)Nc1ccc(S(=O)(=O)N[C@@H]2CCN(C(=O)[C@H](C)N)C[C@H]2C)c2ccccc12` [Compound J-3, (3R, 4R)-N-{4-[1-(2-(S)-Amino-propionyl)-3-methyl-piperidin-4-ylsulfamoyl]-naphthalen-1-yl}-2-methyl-benzamide], less than 500 nM; with `Cc1ccccc1C(=O)Nc1ccc(S(=O)(=O)NC2CCCC2)c2c1CCCC2` [Compound E-26, N-(4-Cyclopentylsulfamoyl-5,6,7,8-tetrahydro-naphthalen-1-yl)-2-methyl-benzamide], less than 1000 nM. The same measure, in the same setting: with `CCOC(=O)N1CCC(NS(=O)(=O)c2ccc(C(=O)N(C)C3CCCCC3)c3ccccc23)CC1` [Compound F-27, 4-[4-(Cyclohexyl-methyl-carbamoyl)-naphthalene-1-sulfonylamino]-piperidine-1-carboxylic acid ethyl ester] the figure was less than 500 nM; with `Cc1ccccc1C(=O)Nc1ccc(S(=O)(=O)NC2CCN(C(=O)N(C)C)CC2)c2c1CCCC2` [Compound E-10, 4-[4-(2-Methyl-benzoylamino)-5,6,7,8-tetrahydro-naphthalene-1-sulfonylamino]-piperidine-1-carboxylic acid dimethylamide], less than 500 nM; with `CCCC(=O)N1CCC(NS(=O)(=O)c2cccc3c(C(=O)Nc4ccccc4C)cccc23)CC1` [Compound H-39, 5-(1-Butyryl-piperidin-4-ylsulfamoyl)-naphthalene-1-carboxylic acid o-tolylamide], less than 500 nM. For `CCOC(=O)N1CCC(NS(=O)(=O)c2ccc(NC(=O)c3cccc(C)c3)c3ccccc23)CC1` [Compound B-13, 4-[4-(3-Methyl-benzoylamino)-naphthalene-1-sulfonylamino]-piperidine-1-carboxylic acid ethyl ester], the Ki was less than 1000 nM. For the compound `Cc1ccccc1C(=O)Nc1ccc(S(=O)(=O)N[C@H]2CCNC[C@H]2C)c2ccccc12` [Compound J-50], the inhibition constant (Ki) is less than 500 nM. Still for that read-out and setting: with `O=C(Nc1cccc2c(S(=O)(=O)NC3CCN(C(=O)N4CCOCC4)CC3)cccc12)c1ccccc1` [Compound H-10] the figure was less than 500 nM.

On to `CCOC(=O)N1CCC(NS(=O)(=O)c2ccc(N3C(=O)c4ccccc4C3=O)c3ccccc23)CC1` [Compound A-18, 4-[4-(1,3-Dioxo-1,3-dihydro-isoindol-2-yl)-naphthalene-1-sulfonylamino]-piperidine-1-carboxylic acid ethyl ester], for which the Ki is less than 500 nM.

On to `CCCC(=O)N1CCC(NS(=O)(=O)c2ccc(NC(=O)c3ccccc3C)c3c2CCC3)C1` (racemic) [Compound H-71, (±)-N-[7-(1-Butyryl-pyrrolidin-3-ylsulfamoyl)-indan-4-yl]-2-methyl-benzamide], for which the Ki was less than 500 nM. In the case of `Cc1ccccc1C(=O)Nc1ccc(S(=O)(=O)N[C@@H]2CCN(Cc3ccccc3)C[C@H]2C)c2c1CCC2` (racemic) [Compound H-75, (±)-trans-N-[7-(1-Benzyl-3-methyl-piperidin-4-ylsulfamoyl)-indan-4-yl]-2-methyl-benzamide], the Ki was less than 1000 nM. The same measure, in the same setting: the value for `Cc1ccccc1C(=O)Nc1ccc(S(=O)(=O)NCCCN2CCOCC2)c2c1CCCC2` [Compound E-25, 2-Methyl-N-[4-(3-morpholin-4-yl-propylsulfamoyl)-5,6,7,8-tetrahydro-naphthalen-1-yl]-benzamide] was less than 30000 nM. Same read-out and setting: the value for `COc1ccc(NS(=O)(=O)c2ccc(NC(=O)c3ccccc3C)c3ccccc23)cc1` [Compound B-11, N-[4-(4-Methoxy-phenylsulfamoyl)-naphthalen-1-yl]-2-methyl-benzamide] was less than 500 nM; that for `CCOC(=O)N1CCC(NS(=O)(=O)c2ccc(NC(=O)c3ccccc3Cl)c3ccccc23)CC1` [Compound A-43, 4-[4-(2-Chloro-benzoylamino)-naphthalene-1-sulfonylamino]-piperidine-1-carboxylic acid ethyl ester] was less than 500 nM. The same measure, in the same setting: with `CC(C)(C)OC(=O)N1CCC(NS(=O)(=O)c2ccc(NC(=O)C3CCCCC3)c3ccccc23)CC1` [Compound B-19, 4-[4-(Cyclohexanecarbonyl-amno)-naphthalene-1-sulfonylamino]-piperidine-1-carboxylic acid tert-butyl ester] the figure was less than 500 nM; with `CN(C)C(=O)N1CCC(NS(=O)(=O)c2ccc(C(=O)NC3CCCCC3)c3ccccc23)CC1` [Compound F-6, 4-(4-Cyclohexylcarbamoyl-naphthalene-1-sulfonylamino)-piperidine-1-carboxylic acid dimethylamide], less than 500 nM. Consider `Cc1ccccc1C(=O)Nc1ccc(S(=O)(=O)NC2CCN(C(=O)N3CCCC3)CC2)c2c1CCCC2` [Compound E-11, 2-Methyl-N-{4-[1-(pyrrolidine-1-carbonyl)-piperidin-4-ylsulfamoyl]-5,6,7,8-tetrahydro-naphthalen-1-yl}-benzamide], for which the Ki was less than 500 nM. On the same count and under the same terms, the value for `CCOC(=O)N1CC[C@H](NS(=O)(=O)c2ccc(NC(=O)c3ccccc3C)c3ncccc23)[C@H](C)C1` [Compound J-40, (3R, 4S)-3-Methyl-4-[8-(2-methyl-benzoylamino)-quinoline-5-sulfonylamino]-piperidine-1-carboxylic acid ethyl ester] was less than 500 nM; that for `CCN(CC)C(=O)N1CCC(NS(=O)(=O)c2ccc(NC(=O)c3ccccc3C)c3ccccc23)CC1` [Compound C-42, 4-[4-(2-Methyl-benzoylamino)-naphthalene-1-sulfonylamino]-piperidine-1-carboxylic acid diethylamide] was less than 500 nM.

Values taken from patent US7491827B2, “Aryl sulfonamides useful as inhibitors of chemokine receptor activity” (Millennium Pharmaceuticals, Inc., priority 2003, dated 2009).
